Test system: D. suzukii
Assay: Laboratory choice assays (double-choice ventilated arenas)
Assay type: in vivo, Drosophila suzukii
Details: vs flies selecting deionized water and flies not making any choice; 24 h; P<0.001
Protocol: Constant and uniform airflow was created within each of the containers using a vacuum at 1.5 L mid′ from the base and through the upper portion of each of the respective containers. Attraction to the matrix containing the ingredients of the exemplary insect control composition was verified in double-choice behavioral experiments. Arenas were prepared using 2-L transparent Griffin-style graduated low-form plastic beakers (Nalgene, Rochester, N.Y.). For each beaker, 9 ventilation holes (1 cm diameter) were cut along the circumference approximately 6 cm from the base. The holes were covered with fine white mesh in order to prevent D. suzukii individuals from escaping. The top of each beaker was drilled and connected to a 0.5 cm diameter plastic tube providing a vacuum in order to create a constant and uniform air flow (1.5 L min^−1) within the containers. Beakers were placed upside down on a flat work surface covered by white paper sheets. Two 25 mL plastic cups (Dart Container Corporation, Mason, Mich.) containing ˜10 mL of water and 5 g of arabinogalactan were placed at the base of each beaker. Both cups were covered with a wax film (Parafilm® M, Pechiney, Chicago, Ill.). 3 holes (˜0.3 cm diameter) were cut on the film coverings in order to allow the flies to enter the cups. […]

Substance: arabinogalactan
- number of flies selecting deli cups containing arabinogalactan: significantly higher
